Laboratory results as given in US10125118B2, “Heteroaryl compounds and their use as therapeutic drugs” (Dong-A Socio Holdings Co., Ltd., priority 2015, dated 2018).

Each compound was assayed against human c-MER catalytic domain (Homo sapiens (Human), UniProt Q12866) (assay: LanthaScreen TR-FRET kinase assay, c-MER). Conditions: read-out: Mer TK inhibition (IC50); Biochemical IC50, TR-FRET, 10 uM ATP.
Sequence of human c-MER catalytic domain (Q12866 587-858): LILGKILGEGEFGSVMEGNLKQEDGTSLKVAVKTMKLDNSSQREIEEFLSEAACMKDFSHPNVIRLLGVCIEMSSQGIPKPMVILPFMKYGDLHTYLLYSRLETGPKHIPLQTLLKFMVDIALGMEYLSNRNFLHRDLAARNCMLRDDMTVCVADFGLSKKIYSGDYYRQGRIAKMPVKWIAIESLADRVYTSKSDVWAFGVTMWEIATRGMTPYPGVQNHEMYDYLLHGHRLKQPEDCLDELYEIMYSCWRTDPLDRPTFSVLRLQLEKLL
Cn1cc(-c2cnc(N)c(C(=O)N[C@H]3CCC[C@@H]3OCc3cc(F)c(F)cc3F)c2)cn1 (relative stereo) [Example 50, 2-amino-5-(1-methyl-1H-pyrazol-4-yl)-N-(trans-2-((2,4,5-trifluorobenzyl)oxy)cyclopentyl)nicotinamide] was tested, and the IC50 was greater than 1000 nM. Cn1cc(-c2cnc(N)c(C(=O)N[C@H]3CCC[C@@H]3OCc3ccccc3-c3ccccc3)c2)cn1 (relative stereo) [Example 66, N-(trans-2-([1,1′-biphenyl]-2-ylmethoxy)cyclopentyl)-2-amino-5-(1-methyl-1H-pyrazol-4-yl)nicotinamide] gave an IC50 greater than 1000 nM. Cn1cc(-c2cnc(N)c(C(=O)N[C@H]3CCC[C@H]3O)c2)cn1 (relative stereo) [Example 70, 2-amino-N-(cis-2-hydroxycyclopentyl)-5-(1-methyl-1H-pyrazol-4-yl)nicotinamide] gave an IC50 greater than 1000 nM. Work on CN(Cc1ccccc1)[C@H]1CCC[C@@H]1NC(=O)c1cc(-c2cnn(C)c2)cnc1N (relative stereo) [Example 76, 2-amino-N-(trans-2-(benzyl(methyl)amino)cyclopentyl)-5-(1-methyl-1H-pyrazol-4-yl)nicotinamide] yielded an IC50 greater than 1000 nM. With Cn1cc(-c2cnc(N)c(C(=O)N[C@@H]3[C@@H](COc4ccccc4)CCC3(F)F)c2)cn1 (relative stereo) [Example 79, 2-amino-N-(trans-2,2-difluoro-5-(phenoxymethyl)cyclopentyl)-5-(1-methyl-1H-pyrazol-4-yl)nicotinamide] the IC50 was greater than 1000 nM. Compound Cn1cc(-c2cnc(N)c(C(=O)N[C@H]3COC[C@@H]3N3CCOCC3)c2)cn1 (relative stereo) [Example 90, 2-amino-5-(1-methyl-1H-pyrazol-4-yl)-N-(trans-4-morpholinotetrahydrofuran-3-yl)nicotinamide] has an IC50 greater than 1000 nM. For Cn1cc(-c2cnc(N)c(C(=O)N[C@H]3COC[C@@H]3N3CCCC3)c2)cn1 (relative stereo) [Example 91, 2-amino-5-(1-methyl-1H-pyrazol-4-yl)-N-(trans-4-(pyrrolidin-1-yl)tetrahydrofuran-3-yl)nicotinamide], the IC50 was greater than 1000 nM. Compound Cn1cc(-c2cnc(N)c(C(=O)N[C@H]3COC[C@H]3O)c2)cn1 (relative stereo) [Example 92, 2-amino-N-(cis-4-hydroxytetrahydrofuran-3-yl)-5-(1-methyl-1H-pyrazol-4-yl)nicotinamide] has an IC50 greater than 1000 nM. In the case of CC(C)N1C[C@H](NC(=O)c2cc(-c3cnn(C)c3)cnc2N)[C@@H](OCc2ccccc2)C1 (relative stereo) [Example 94, 2-amino-N-(trans-4-(benzyloxy)-1-isopropylpyrrolidin-3-yl)-5-(1-methyl-1H-pyrazol-4-yl)nicotinamide], the IC50 is reported as greater than 1000 nM. Work on Cn1cc(-c2cnc(N)c(C(=O)N[C@H]3CCC[C@@H]3OCc3cccc([N+](=O)[O-])c3)c2)cn1 [Example 30, 2-amino-5-(1-methyl-1H-pyrazol-4-yl)-N-((1S,2S)-2-((3-nitrobenzyl)oxy)cyclopentyl)nicotinamide] yielded an IC50 greater than 1000 nM. With Cn1cc(-c2cnc(N)c(C(=O)N[C@H]3CCC[C@@H]3OCc3cccc(C#N)c3)c2)cn1 [Example 31, 2-amino-N-((1S,2S)-2-((3-cyanobenzyl)oxy)cyclopentyl)-5-(1-methyl-1H-pyrazol-4-yl)nicotinamide] the IC50 was greater than 1000 nM. For Cn1cc(-c2cnc(N)c(C(=O)N[C@H]3CCC[C@@H]3OCc3cccc(O)c3)c2)cn1 [Example 32, 2-amino-N-((1S,2S)-2-((3-hydroxybenzyl)oxy)cyclopentyl)-5-(1-methyl-1H-pyrazol-4-yl)nicotinamide], the IC50 was greater than 1000 nM. COc1ccc(CO[C@H]2CCC[C@@H]2NC(=O)c2cc(-c3cnn(C)c3)cnc2N)cc1 [Example 35, 2-amino-N-((1S,2S)-2-((4-methoxybenzyl)oxy)cyclopentyl)-5-(1-methyl-1H-pyrazol-4-yl)nicotinamide] showed an IC50 greater than 1000 nM. For COc1ccc(CO[C@@H]2CCC[C@H]2NC(=O)c2cc(-c3cnn(C)c3)cnc2N)cc1 [Example 36, 2-amino-N-((1R,2R)-2-((4-methoxybenzyl)oxy)cyclopentyl)-5-(1-methyl-1H-pyrazol-4-yl)nicotinamide], the IC50 was greater than 1000 nM. Compound COC(=O)c1cccc(CO[C@H]2CCC[C@@H]2NC(=O)c2cc(-c3cnn(C)c3)cnc2N)c1 [Example 42, methyl 3-((((1S,2S)-2-(2-amino-5-(1-methyl-1H-pyrazol-4-yl)nicotinamido)cyclopentyl)oxy)methyl)benzoate] has an IC50 greater than 1000 nM. Cn1cc(-c2cnc(N)c(C(=O)N[C@H]3CCC[C@@H]3OCc3cccc(Br)c3)c2)cn1 [Example 51, 2-amino-N-((1S,2S)-2-((3-bromobenzyl)oxy)cyclopentyl)-5-(1-methyl-1H-pyrazol-4-yl)nicotinamide] showed an IC50 greater than 1000 nM. COC(=O)CNC(=O)c1cccc(CO[C@H]2CCC[C@@H]2NC(=O)c2cc(-c3cnn(C)c3)cnc2N)c1 [Example 55, methyl (3-((((1S,2S)-2-(2-amino-5-(1-methyl-1H-pyrazol-4-yl)nicotinamido)cyclopentyl)oxy)methyl)benzoyl)glycinate] was tested, and the IC50 was greater than 1000 nM. For Cn1cc(-c2cnc(N)c(C(=O)N[C@H]3CCC[C@@H]3OCc3cccc(C(=O)NCCO)c3)c2)cn1 [Example 56, 2-amino-N-((1S,2S)-2-((3-((2-hydroxyethyl)carbamoyl)benzyl)-oxy)cyclopentyl)-5-(1-methyl-1H-pyrazol-4-yl)nicotinamide], the IC50 was greater than 1000 nM. For Cn1cc(-c2cnc(N)c(C(=O)N[C@H]3CCC[C@@H]3OCc3cccc(NC(=O)C4CCNCC4)c3)c2)cn1 [Example 57, 2-amino-5-(1-methyl-1H-pyrazol-4-yl)-N-((1S,2S)-2-((3-(piperidine-4-carboxamido)benzyl)oxy)cyclopentyl)nicotinamide], the IC50 was greater than 1000 nM. With C[C@H](N)C(=O)Nc1cccc(CO[C@H]2CCC[C@@H]2NC(=O)c2cc(-c3cnn(C)c3)cnc2N)c1 [Example 58, 2-amino-N-((1S,2S)-2-((3-((S)-2-aminopropanamido)benzyl)oxy)-cyclopentyl)-5-(1-methyl-1H-pyrazol-4-yl)nicotinamide] the IC50 was greater than 1000 nM. CC(=O)N[C@@H](C)C(=O)Nc1cccc(CO[C@H]2CCC[C@@H]2NC(=O)c2cc(-c3cnn(C)c3)cnc2N)c1 [Example 59, N-((1S,2S)-2-((3-((S)-2-acetamidopropanamido)benzyl)oxy)-cyclopentyl)-2-amino-5-(1-methyl-1H-pyrazol-4-yl)nicotinamide] gave an IC50 greater than 1000 nM. Cn1cc(-c2cnc(N)c(C(=O)N[C@H]3CCC[C@@H]3OCc3ccc(-n4nccn4)cc3)c2)cn1 [Example 62, N-((1S,2S)-2-((4-(2H-1,2,3-triazol-2-yl)benzyl)oxy)cyclopentyl)-2-amino-5-(1-methyl-1H-pyrazol-4-yl)nicotinamide] was tested, and the IC50 was greater than 1000 nM. Cn1cc(-c2cnc(N)c(C(=O)N[C@H]3CCC[C@@H]3O)c2)cn1 [Example 69, 2-amino-N-((1S,2S)-2-hydroxycyclopentyl)-5-(1-methyl-1H-pyrazol-4-yl)nicotinamide] showed an IC50 greater than 1000 nM. For CCNc1ncc(-c2cnn(C)c2)cc1C(=O)N[C@H]1CCC[C@@H]1OCc1ccccc1 [Example 71, N-((1S,2S)-2-(benzyloxy)cyclopentyl)-2-(ethylamino)-5-(1-methyl-1H-pyrazol-4-yl)nicotinamide], the IC50 was greater than 1000 nM.
